How the values were obtained:
[1] = tested on: HCV Genotype 1 (1a or 1b); test: Parallel group, rising multiple-dose, 3 period crossover study in non-responders, HCV-RNA viral load; type: in vivo, patients
Description: In order to measure viral load, the Hepatitis C virus RNA (HCV-RNA) is measured by extracting total RNA from plasma or serum samples and using an in-house real-time reverse transcriptase polymerase chain reaction (RT-PCR) assay with a lower limit of detection of 29 International Units (IU)/mL. The amplification target is the 5′-Untranslated region (UTR) of the HCV genome. An internal RNA control is added to each sample to assess the efficiency of RNA extraction. Appropriate negative and positive controls are added in each assay run. The assay method has been validated against the WHO International Standard for HCV. The HCV-RNA amount in a sample is reported as copies of HCV-RNA per mL of sample and also as HCV IU per mL of sample. When <100 copies of HCV-RNA per mL are found, the HCV-RNA is considered to be undetectible.
A second study was commenced in patients having detectible levels ([…] copies per mL tissue or fluid) HCV Genotype 1 (1a or 1b) and whom were already established as non-responders from previous trials.
The methodology of the study was a parallel group, rising, multiple-dose, 3 period crossover (within each group) study in which subjects are treated with pegylated interferon (PEG-Intron, commercially available from Schering-Plough), 1.5 mcg/kg of the compound of Formula Ia or combination treatment of PEG-Intron 1.5 mcg/kg and the compound of Formula Ia. The doses of the compound of Formula Ia used for each group were 200 mg TID or 400 mg TID.
Twelve patients were treated in a random sequence with each 200 mg TID dose of the compound of Formula Ia alone for 7 days, PEG-Intron once weekly for two doses, and a combination treatment of 200 mg TID of the compound of Formula la plus PEG-Intron for 14 days. Preliminary results from the 200 mg TID dose group are illustrated in FIG. 2.

[2] = tested on: HCV Genotype 1 (either Genotype 1a or Genotype 1b); test: Rising multiple dose study in non-responder patients, HCV-RNA viral load by RT-PCR; type: in vivo
Description: A rising multiple dose study was conducted in four groups of non-responder patients in which 100, 200 and 400 mg BID and 400 mg TID dosages of the compound of Formula la were administered for 14 days. […] The methodology used was a randomized, placebo controlled, multi-center, third-party-blind, multiple-dose study of the compound of Formula Ia in non-responders conducted in accordance with Good Clinical Practices. For the purpose of this study, it should be noted that the non-responders also were patients in whom one or more symptoms were established in association with, or the possibility of one or more symptoms was suspected of in association with, HCV Genotype 1 (either Genotype 1a or Genotype 1b) specifically. In order to measure viral load, the Hepatitis C virus RNA (HCV-RNA) is measured by extracting total RNA from plasma or serum samples and using an in-house real-time reverse transcriptase polymerase chain reaction (RT-PCR) assay with a lower limit of detection of 29 International Units (IU)/mL. The amplification target is the 5′-Untranslated region (UTR) of the HCV genome. An internal RNA control is added to each sample to assess the efficiency of RNA extraction. Appropriate negative and positive controls are added in each assay run. The assay method has been validated against the WHO International Standard for HCV. The HCV-RNA amount in a sample is reported as copies of HCV-RNA per mL of sample and also as HCV IU per mL of sample. When <100 copies of HCV-RNA per mL are found, the HCV-RNA is considered to be undetectible.

Compound: CC(C)(C)NC(=O)N[C@H](C(=O)N1C[C@H]2[C@@H]([C@H]1C(=O)NC(CC1CCC1)C(=O)C(N)=O)C2(C)C)C(C)(C)C (mixture of isomers) [Formula Ia]
- mean maximum HCV-RNA reduction ([1]; 200 mg TID alone for 7 days, preliminary results): 0.85 logs
- average maximum reduction in HCV-RNA viral load ([1]; 200 mg TID in combination with PEG-Intron 1.5 mcg/kg weekly, two weeks of treatment): 2.4 logs
- course of viral load in the second week ([1]; 200 mg TID in combination with PEG-Intron, 14 days): viral load continued to decline in the second week
- HCV-RNA viral load level of one patient at the end of therapy (undetectible) ([1]; 200 mg TID in combination with PEG-Intron, end of 14 days, one patient (decrease by 4.5 logs)): < 100 copies per mL of tissue or fluid
- average maximum reduction of viral load from baseline ([2]; 400 mg TID for 14 days, monotherapy, 10 non-responder patients): 2 logs
- effect of monotherapy on viral load ([2]; 100, 200 and 400 mg BID and 400 mg TID for 14 days): reduced viral load in all patients
- HCV-RNA viral load following discontinuation of treatment ([2]; after the 14-day treatment, all patients): returned to baseline levels in all patients
